Data taken from US20230114207A1, “THE COMBINATION OF CYCLIN DEPENDENT KINASE 7 INHIBITOR AND IMMUNOTHERAPY FOR TREATMENT OF CANCER” (Dana-Farber Cancer Institute, Inc., priority 2019, published 2023).

Experiments:
[1] = system: SCLC cells (RPP631, DMS79, GLC16, NCI-H69, NCI-H82); assay: Cell viability assay (CCK-8); type: cell-based, mouse, human
Procedure: Cells were seeded in 96-well plates (0.01-0.02×10^6 cells/well) in media and treated with YKL-5-124 at indicated concentrations and time points. Cell viability was measured using the MTS-based CCK-8 assay (Dojindo, Cat #CK04). Absorption at 450 nm was measured 3 hr after addition of CCK-8 reagent to cells.

RPP631 and DMS79 cells = assay: Cell cycle analysis (propidium iodide flow cytometry); type: cell-based, mouse, human
Procedure: Cells were seeded in 6-well plates (0.5-1×10^6 cells/well) in media and treated with YKL-5-124 at indicated concentrations and time points. Cells were collected by centrifugation, washed in cold PBS and resuspended in 1 ml of 80% EtOH in PBS and stored overnight at −20° C. Cells were again collected by centrifugation and washed 3× with cold PBS. Hereafter cells were resuspended in PBS containing: 0.1% Triton X-100, 25 μg/ml Propidium Iodide (PI) and 0.2 mg/ml RNase A and incubated for 45 min at 37° C. After incubation, cells were placed at 4° C. until ready for analysis with flow cytometry. Cells were gated for PI staining and cell accumulation in G1, S and G2/M were calculated using ModFit LT software.

RPP631 and GLC16 cells = assay: Immunofluorescence of γH2AX foci and micronuclei; type: cell-based, mouse, human
Procedure: Before fixation, cells in PBS were seeded for 30 min on 0.01% Poly-lysine coated coverslip. Cells were then fixed in 4% paraformaldehyde (Diluted the 32% paraformaldehyde in PBS, Electron Microscopy Sciences 15714) for 10 min at room temperature. Cells were washed three times for 5 min with 200 mM glycine containing PBS, followed by permeabilization with 0.3% Triton X-100 in PBS for 15 min. After blocking with 5% bovine serum albumin (BSA) in PBS for 1 hour, cells were incubated with primary antibody (γH2A.X, Cell signaling 9718, 1:200) diluted in a 5% BSA in PBS solution overnight at 4° C. After washing four times with PBS, cells were incubated with Alexa Fluor Plus 555 (Invitrogen A32732, 1: 500) secondary antibody for 1 hour and washed three times with PBS. Cell nuclei were counterstained with DAPI (Biolengend 422801, diluted to 600 nM in PBS) for 5 min. Cells were washed two more times in PBS before mounting with Fluorescence Mounting Medium (Dako, S3023). Images were acquired using Zeiss 880 Laser Scanning Confocal Microscope and were processed by FIJI (NIH). Micronucleus were identified manually by distinct DAPI staining outside the main nucleus.

[2] = system: intratumoral cell populations, RPP orthotopic mice; assay: Single-cell RNA sequencing of tumor-bearing lungs; type: in vivo, mouse
Procedure: To account for interindividual variability, we harvested pooled fresh tumor-bearing lungs from two mice in two independent cohorts of RPP orthotopic mice which were treated with control, YKL-5-124, anti-PD-1 and combination treatment for seven days. Single cell suspensions were achieved as described above and were sorted using DAPI staining. Cells were then resuspended into single cells with 0.4% BSA for 10× genomics processing. Cell suspensions were loaded onto a 10× Genomics Chromium instrument to generate single-cell gel beads in emulsion (GEMs). Approximately 5,000 to 10,000 cells were loaded per channel. scRNA-seq libraries were prepared using the following Single Cell 3′ Reagent Kits: Chromium™ Single Cell 3′ Library & Gel Bead Kit v2 (PN-120237), Single Cell 3′ Chip Kit v2 (PN-120236) and i7 Multiplex Kit (PN-120262) (10× Genomics, Pleasanton, Calif., USA), and following the Single Cell 3′ Reagent Kits v2 User Guide (Manual Part #CG00052 Rev A). Libraries were run on an Illumina HiSeq 4000 system (SY-401-4001, Illumina) as 2×150 paired-end reads, one full lane per sample, for approximately >90% sequencing saturation.
The Cell Ranger Single Cell Software Suite, version 1.3 was used to perform sample de-multiplexing, barcode and UMI processing, and single-cell 3′ gene counting. A detailed description of the pipeline and specific instructions to run it can be found at: https://Support.10×genomics.com/single-cell-gene-expression/software/pipelines/latest/what-is-cell-ranger). A high quality gene expression matrix was created in sequential preprocessing steps as provided in the Seurat (v2.3.4) pipeline. First only genes that were detected in both independent scRNAseq datasets were retained and cells were excluded if respectively more than […] of detected genes were from mitochondrial or ribosomal origin or if less than 500 genes were detected. The count matrix was subsequently log-normalized with a scale-factor of 10000 and the obtained normalized matrix was further corrected by retaining the residuals after regressing out systematic changes due to number of detected UMIs, percent genes from mitochondrial or ribosomal origin.
Cells from both independent datasets were merged together in canonical correlation (CC) space using the intersection of highly variable genes, identified as genes with higher-than-expected variability in consecutive ranked expression bins, from both datasets. The implementation of CC alignment and selection of downstream dimensions to use was performed as described in the Seurat package. Cells were clustered using the Louvain algorithm based on a shared nearest-neighbor network. The final resolution of all subsequent clustering analyses was determined by the biological questions and the need for coarse or fine-grained detail as explored in the subsequent cluster annotation. Clusters were annotated using input from multiple sources, we i) calculated a stromal, cancer and immune score using the estimate (v1.0.13) package in R, ii) identified cluster specific gene expression markers based on gini-scores, iii) created a hierarchical tree based on Pearson correlation scores between clusters to visualize lineage relationships and iv) compared clusters to those of the Immgen database using the SingleR (v0.2.1) package in R. UMAP as implemented by the uwot (v0.0.0.9010) package in R was used to visualize clusters in 2D CC space. Overall this strategy was hierarchically used to assess all cells, cancer cells only, immune cells only and finally T-cells only.
In the first clustering step, several additional analyses were performed to remove dubious or non-reproducible clusters from downstream analyses. To identify contamination of immune cell clusters with cancer cells we performed k-means (2 centers) clustering on all cells on identified and known canonical markers (Epcam, Calca, Stmn1, Ascl1, Krt7, Nfib, Krt8, Krt18) specific to cancer cells. […]

C=CC(=O)Nc1ccc(C(=O)Nc2n[nH]c3c2CN(C(=O)N[C@H](CN(C)C)c2ccccc2)C3(C)C)cc1 [YKL-5-124]
growth rate (cell viability) compared to control cells ([1]; all tested concentrations, up to 7 days): significant reduction | kind of growth effect ([1]; up to day 7): cytostatic effect with a tendency of cytotoxic effects at longer time points | cells in G1 phase (RPP631 and DMS79 cells; 72 hours): significant accumulation | cells in S phase (RPP631 and DMS79 cells; 72 hours): corresponding loss | percentage of cells in G2/M phase (RPP631 and DMS79 cells; concentrations up to 500 nM): not significantly changed | percentages of cells containing micronuclei (RPP631 and GLC16 cells; RPP631 and GLC16): considerably increased | γH2AX foci (RPP631 and GLC16 cells; after 48 hr): significant increase | frequencies of total immune cell components ([2]; compared with control group): increase | DCs ([2]; in comparison to control): increase | myeloid compartments ([2]; in comparison to control): higher numbers of monocytes and neutrophils | percentage of total T cells, NK cells and ILC cells ([2]; in comparison to control): significant increase | genes within the 'cell-cycle' and 'E2F target' signatures (GSEA) ([2]; in vivo): significantly downregulated | immune response signaling ('Interferon gamma response', 'Inflammatory response') ([2]; in vivo): triggered robust immune response signaling | cell-cycle state distribution of cancer cells ([2]; in vivo, seven days): mainly arrested at G1 phase | percentage of S phase cells (cluster 4, 5 and 6) ([2]; in vivo, seven days): significant decrease | c0, c8 and c9 clusters of naive-like CD8^+ T cells ([2]; mouse, in vivo): reduction | c4 percentage ([2]; mouse, in vivo): slight reduction
